What was measured:
[1] = system: Colorado potato beetle (Leptinotarsa decemlineata); experiment: Field trial against Colorado potato beetle in potatoes; assay type: in vivo; settings: 60 g AI/HA
Description: Performance of EC formulations according to the invention against the Colorado potato beetle (Leptinotarsa decemlineata) in potatoes
The trial was arranged in a randomized complete block design with three replications. Plots were 5 m long and one row (1 m) wide. Applications were conducted with a fournozzle row crop boom delivering side and overhead coverage, at 3-bar pressure and 400 l/ha. Numbers of larvae (L1/2) (L3/4) were recorded per plot at 2, 5 and 14 DAT (day after treatment) and a defoliation assessment was made at 14 DAT. Colorado potato beetle pressure was high resulting in complete defoliation in the controls at 19 DAT.

[2] = system: Southern armyworm (Spodoptera eridania), third instar; experiment: Lima bean leaf-dip test against Southern armyworm; assay type: in vivo
Description: Performance of EC formulations according to the invention against Southern armyworm (Spodoptera eridania), third instar
A stock solution of metaflumizone formulation is diluted into a container of water. Lima bean leaves are dipped into treatment solutions and allowed to air-dry. A single treated leaf is placed topside-up onto water-moistened filter paper in multiple plastic petri dishes. Seven larvae are placed onto each leaf and then each arena is sealed with petri dish covers. Each treatment replicated 4-fold (1 replicate=1 petri dish arena). Following treatment application, infested plants are held in the laboratory under fluorescent lighting and constant 26° C. Larval mortality/morbidity (i.e., number dead/number tested) is assessed at 5 days post-treatment. The mortality levels based on number of live larve.

[3] = larval mortality at 5 days post-treatment, Log Dose-Probit analysis

N#Cc1ccc(CC(=NNC(=O)Nc2ccc(OC(F)(F)F)cc2)c2cccc(C(F)(F)F)c2)cc1 [metaflumizone]
Mean # of L1/L2 per plot ([1]; 2 DAT): .3b | Mean # of L3/L4 per plot ([1]; 2 DAT): .3b | Mean # of L1/L2 per plot ([1]; 5 DAT): 4b | Mean # of L3/L4 per plot ([1]; 5 DAT): 2b | % Defoliation ([1]; 14 DAT): 18a % | Mean # of L1/L2 per plot ([1]; 14 DAT): .3a | Mean # of L3/L4 per plot ([1]; 14 DAT): 7ab | LC50 [2, 3]: 1.50 ppm | LC90 [2, 3]: 7.70 ppm | Biological Enhancement ([2]; relative to metaflumizone dispersed in water (standard control)): 1x (standard control)

From US20100137375A1, “Emulsifiable Concentrate” (BASF SE, priority 2005, published 2010)
